# Data taken from ChEMBL document CHEMBL4028802, “DILIrank: the largest reference drug list ranked by the risk for developing drug-induced liver injury in humans” (Drug Discov Today, 2016).
# What was measured:
# Homo sapiens [1] = organism: Homo sapiens; test: Liver toxicity in human assessed as induction of drug-induced liver injury by measuring severity class index
# Homo sapiens [2] = organism: Homo sapiens; test: Liver toxicity in human assessed as induction of drug-induced liver injury by measuring verified drug-induced liver injury concern status
# Throughout, for DILI severity class: key of the grades not given here.
Compound,DILI_severity_class (Homo sapiens [1]),DILI_Concern (Homo sapiens [2])
CCCC(=O)Nc1ccc(OCC(O)CNC(C)C)c(C(C)=O)c1 (stereo unspecified) [ACEBUTOLOL],3,Less-Dili-Concern
C[C@H]1[C@H](NC(=O)/C(=N\OC(C)(C)C(=O)O)c2csc(N)n2)C(=O)N1S(=O)(=O)O [AZTREONAM],5,Ambiguous-Dili-Concern
CCC[C@@H]1C[C@@H](C(=O)N[C@@H]([C@H]2O[C@H](SC)[C@H](O)[C@@H](O)[C@H]2O)[C@@H](C)O)N(C)C1 [LINCOMYCIN],3,Ambiguous-Dili-Concern
O=[N+]([O-])O[C@H]1CO[C@H]2[C@@H]1OC[C@H]2O[N+](=O)[O-] [ISOSORBIDE DINITRATE],0,No-Dili-Concern
Cc1cccc([C@H](C)c2cnc[nH]2)c1C [DEXMEDETOMIDINE],4,Ambiguous-Dili-Concern
C[C@@H](CN1CC(=O)NC(=O)C1)N1CC(=O)NC(=O)C1 [DEXRAZOXANE],4,Ambiguous-Dili-Concern
CCOC(=O)c1ncn2c1CN(C)C(=O)c1cc(F)ccc1-2 [FLUMAZENIL],0,No-Dili-Concern
CC[C@@]1(O)C(=O)OCc2c1cc1n(c2=O)Cc2cc3c(CN(C)C)c(O)ccc3nc2-1 [TOPOTECAN],0,No-Dili-Concern
Cc1nnc2n1-c1ccc(Cl)cc1C(c1ccccc1)=NC2 [ALPRAZOLAM],7,Less-Dili-Concern
Cc1c(-c2ccccc2)oc2c(C(=O)OCCN3CCCCC3)cccc2c1=O [FLAVOXATE],0,No-Dili-Concern
NS(=O)(=O)c1cc2c(cc1C(F)(F)F)NC(Cc1ccccc1)NS2(=O)=O (stereo unspecified) [BENDROFLUMETHIAZIDE],5,Less-Dili-Concern
CCN1CCN(C(=O)N[C@@H](C(=O)N[C@@H]2C(=O)N3[C@@H]2SC(C)(C)[C@@H]3C(=O)O)c2ccccc2)C(=O)C1=O [PIPERACILLIN],3,Ambiguous-Dili-Concern
CN1CCN2c3ncccc3Cc3ccccc3C2C1 (stereo unspecified) [MIRTAZAPINE],3,Less-Dili-Concern
Cl.Cl.O=C(O)COCCN1CCN([C@H](c2ccccc2)c2ccc(Cl)cc2)CC1 [LEVOCETIRIZINE DIHYDROCHLORIDE],4,Less-Dili-Concern
N[C@@H](C(=O)N[C@@H]1C(=O)N2C(C(=O)O)=C(Cl)CC[C@H]12)c1ccccc1 [LORACARBEF ANHYDROUS],3,Less-Dili-Concern
CN(C)CCC(c1ccc(Br)cc1)c1ccccn1 (stereo unspecified) [BROMPHENIRAMINE],0,No-Dili-Concern
C=C[C@H]1C[N@@]2CC[C@H]1C[C@@H]2[C@@H](O)c1ccnc2ccc(OC)cc12 [QUINIDINE],3,Less-Dili-Concern
CO[C@H]1C[C@@H]2CC[C@@H](C)[C@@](O)(O2)C(=O)C(=O)N2CCCC[C@H]2C(=O)O[C@H]([C@H](C)C[C@@H]2CC[C@@H](O)[C@H](OC)C2)CC(=O)[C@H](C)/C=C(\C)[C@@H](O)[C@@H](OC)C(=O)[C@H](C)C[C@H](C)/C=C/C=C/C=C/1C [SIROLIMUS],8,Less-Dili-Concern
O=C([O-])O.[Na+] [SODIUM BICARBONATE],0,No-Dili-Concern
Cc1cc(C)cc(OCC2CNC(=O)O2)c1 (stereo unspecified) [METAXALONE],5,Less-Dili-Concern

Compound,DILI_severity_class (Homo sapiens [1]),DILI_Concern (Homo sapiens [2])
O=P1(NCCCl)OCCCN1CCCl (stereo unspecified) [IFOSFAMIDE],4,Less-Dili-Concern
Cc1[nH]c(=O)c(C#N)cc1-c1ccncc1 [MILRINONE],3,Ambiguous-Dili-Concern
CC(C)n1c(/C=C/C(O)CC(O)CC(=O)O)c(-c2ccc(F)cc2)c2ccccc21 (stereo unspecified) [FLUVASTATIN],3,Less-Dili-Concern
CCC1(c2ccccc2)C(=O)NCNC1=O [PRIMIDONE],0,No-Dili-Concern
N[C@@H]1C[C@H]1c1ccccc1.N[C@H]1C[C@@H]1c1ccccc1 [TRANYLCYPROMINE],3,Less-Dili-Concern
Oc1ccc2c3c1O[C@H]1[C@@H](O)CC[C@@]4(O)[C@@H](C2)N(CC2CCC2)CC[C@]314 [NALBUPHINE],0,No-Dili-Concern
COC(=O)N[C@H](C(=O)N[C@@H](Cc1ccccc1)[C@@H](O)CN(Cc1ccc(-c2ccccn2)cc1)NC(=O)[C@@H](NC(=O)OC)C(C)(C)C)C(C)(C)C [ATAZANAVIR],3,Less-Dili-Concern
O=C(O[C@@H]1C[C@@H]2C[C@H]3C[C@H](C1)N2CC3=O)c1c[nH]c2ccccc12 [DOLASETRON],3,Ambiguous-Dili-Concern
CN1C[C@H](C(=O)N[C@]2(C)O[C@@]3(O)[C@@H]4CCCN4C(=O)[C@H](Cc4ccccc4)N3C2=O)C[C@@H]2c3cccc4[nH]cc(c34)C[C@H]21 [DIHYDROERGOTAMINE],0,No-Dili-Concern
CC(N)C12CC3CC(CC(C3)C1)C2 (stereo unspecified) [RIMANTADINE],0,No-Dili-Concern
CN1CCCCC1CCN1c2ccccc2Sc2ccc([S+](C)[O-])cc21 (stereo unspecified) [MESORIDAZINE],5,Ambiguous-Dili-Concern
Cc1onc(-c2ccccc2)c1C(=O)N[C@@H]1C(=O)N2[C@@H]1SC(C)(C)[C@@H]2C(=O)O [OXACILLIN],3,Less-Dili-Concern
CCC1(c2ccccc2)C(=O)NC(=O)NC1=O [PHENOBARBITAL],3,Less-Dili-Concern
CN(C)CCOC(C)(c1ccccc1)c1ccccn1 (stereo unspecified) [DOXYLAMINE],0,No-Dili-Concern
VERTEPORFIN,3,Ambiguous-Dili-Concern
NCCC(O)(P(=O)(O)O)P(=O)(O)O [PAMIDRONIC ACID],3,Ambiguous-Dili-Concern
Clc1ccc2c(c1)C(N1CCNCC1)=Nc1ccccc1O2 [AMOXAPINE],3,Ambiguous-Dili-Concern
CNC(=C[N+](=O)[O-])NCCSCc1csc(CN(C)C)n1 [NIZATIDINE],5,Less-Dili-Concern
COc1ccc(C[C@@H]2c3cc(OC)c(OC)cc3CC[N@+]2(C)CCC(=O)OCCCCCOC(=O)CC[N@@+]2(C)CCc3cc(OC)c(OC)cc3[C@H]2Cc2ccc(OC)c(OC)c2)cc1OC.O=S(=O)([O-])c1ccccc1.O=S(=O)([O-])c1ccccc1 [CISATRACURIUM BESYLATE],0,No-Dili-Concern
C=CCN1CC[C@]23c4c5ccc(O)c4O[C@H]2C(=O)CC[C@@]3(O)[C@H]1C5 [NALOXONE],0,No-Dili-Concern

Compound,DILI_severity_class (Homo sapiens [1]),DILI_Concern (Homo sapiens [2])
CC(C)(C)NCC(O)c1ccc(O)c(CO)c1 (stereo unspecified) [ALBUTEROL],0,No-Dili-Concern
CCCCCCCCCC(=O)OC1(c2ccc(Cl)cc2)CCN(CCCC(=O)c2ccc(F)cc2)CC1 [HALOPERIDOL DECANOATE],3,Ambiguous-Dili-Concern
CCN(CC)CCNC(=O)c1cc(Cl)c(N)cc1OC [METOCLOPRAMIDE],5,Less-Dili-Concern
CC(=O)NC[C@H]1CN(c2ccc(N3CCOCC3)c(F)c2)C(=O)O1 [LINEZOLID],3,Less-Dili-Concern
NNc1nncc2ccccc12 [HYDRALAZINE],3,Less-Dili-Concern
CC(CN1c2ccccc2Sc2ccccc21)N(C)C (stereo unspecified) [PROMETHAZINE],5,Less-Dili-Concern
CC[C@@H]([C@H](C)O)n1ncn(-c2ccc(N3CCN(c4ccc(OC[C@@H]5CO[C@@](Cn6cncn6)(c6ccc(F)cc6F)C5)cc4)CC3)cc2)c1=O [POSACONAZOLE],8,Ambiguous-Dili-Concern
NNC(=O)c1ccncc1 [ISONIAZID],8,Most-Dili-Concern
Cc1cc(C#N)cc(C)c1Oc1nc(Nc2ccc(C#N)cc2)nc(N)c1Br [ETRAVIRINE],8,Most-Dili-Concern
CC(C)c1c(C(=O)Nc2ccccc2)c(-c2ccccc2)c(-c2ccc(F)cc2)n1CC[C@@H](O)C[C@@H](O)CC(=O)O [ATORVASTATIN],5,Most-Dili-Concern
O=C(O)CN(CCN(CC(=O)O)CC(=O)O)CC(=O)O [EDETIC ACID],3,Ambiguous-Dili-Concern
CN(C)CC[C@@H](c1ccc(Br)cc1)c1ccccn1 [DEXBROMPHENIRAMINE],0,No-Dili-Concern
CC(C)Nc1ncccn1 [ISAXONINE],8,Most-Dili-Concern
CCCc1cc(=O)[nH]c(=S)[nH]1 [PROPYLTHIOURACIL],8,Most-Dili-Concern
Nc1ccn(C[C@@H](CO)OCP(=O)(O)O)c(=O)n1.O.O [CIDOFOVIR],5,Ambiguous-Dili-Concern
NCCc1c[nH]cn1.O=P(O)(O)O.O=P(O)(O)O [HISTAMINE PHOSPHATE],0,No-Dili-Concern
COC(=O)C1=C(C)NC(C)=C(C(=O)OC(C)C)C1c1cccc2nonc12 (stereo unspecified) [ISRADIPINE],3,Less-Dili-Concern
N[C@@H](Cc1cc(I)c(Oc2cc(I)c(O)c(I)c2)c(I)c1)C(=O)O [LEVOTHYROXINE],3,Less-Dili-Concern
